How the values were obtained:
[1] = molecular target: T1, human recombinant kinase full-length AKT1 E17K (Homo sapiens, UniProt P31749, E17K); experiment: AKT1 E17K kinase assay (TR-FRET, Lance); type: biochemical; conditions: 0.6 nM AKT1 E17K, 50 nM Ulight-CREBtide, either 50 μM ATP or 2 mM ATP (not specified which), 60 min at RT
T1 construct: Purified human recombinant kinase full-length AKT1 E17K was expressed in insect cells; made in house; host or cells: insect cells
How it was run: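 Full-length human AKT1 E17K (insect cell-expressed, PDPK1-activated; 0.6 nM) with 50 nM ULight-CREBtide in HEPES pH 7.5 with MgCl2 and DTT. ATP at 50 μM or 2 mM, 1% DMSO, 10-point dose response, 60 min at RT.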

[2] = molecular target: T2, human recombinant kinase full-length wildtype AKT1 (Homo sapiens, UniProt P31749); experiment: AKT1 kinase assay (wildtype, TR-FRET, Lance); type: biochemical; conditions: 0.6 nM wildtype AKT1, 50 nM Ulight-CREBtide, either 50 μM ATP or 2 mM ATP (not specified which), 60 min at RT
T2 construct: Purified human recombinant kinase full-length wildtype AKT1 was expressed in insect cells; made in house; host or cells: insect cells
T2 sequence (P31749 whole entry): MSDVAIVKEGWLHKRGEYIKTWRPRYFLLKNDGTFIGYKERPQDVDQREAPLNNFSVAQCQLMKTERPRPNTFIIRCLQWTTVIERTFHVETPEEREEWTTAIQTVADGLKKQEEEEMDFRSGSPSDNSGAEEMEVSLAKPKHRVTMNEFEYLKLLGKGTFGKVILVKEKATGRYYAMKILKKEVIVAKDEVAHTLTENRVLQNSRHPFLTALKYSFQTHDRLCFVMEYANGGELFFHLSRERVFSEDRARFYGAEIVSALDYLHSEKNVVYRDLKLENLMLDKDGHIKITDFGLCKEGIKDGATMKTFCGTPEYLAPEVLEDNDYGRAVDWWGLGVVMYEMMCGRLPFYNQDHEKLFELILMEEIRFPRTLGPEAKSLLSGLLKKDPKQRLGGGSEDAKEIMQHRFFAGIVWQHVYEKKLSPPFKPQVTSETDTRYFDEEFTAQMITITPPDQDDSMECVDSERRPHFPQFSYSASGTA
How it was run: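 Insect-cell-expressed AKT1, activated in vitro by PDPK1, was used at 0.6 nM with 50 nM Ulight-CREBtide and 50 μM or 2 mM ATP in 50 mM HEPES pH 7.5, 1% DMSO, over a 10-point dose response.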

T1 sequence (P31749 whole entry E17K): as the sequence (P31749 whole entry) above, with E17K counted along it

| SMILES | IC50 [1] [nM] | IC50 [2] [nM] |
| --- | --- | --- |
| COC(=O)Cc1ccc(C(=O)NCc2ccc(-n3c(-c4cccnc4N)nc4cc(-c5cccnc5)cnc43)cc2)cc1 [Compound 87, methyl 2-(4-((4-(2-(2-aminopyridin-3-yl)-6-(pyridin-3-yl)-3H-imidazo[4,5-b]pyridin-3-yl)benzyl)carbamoyl)phenyl)acetate] | > 500 | < 500 |
| COC(=O)c1ccccc1C(=O)N1CC(c2ccc(-n3c(-c4cccnc4N)nc4ccc(-c5ccccc5)nc43)cc2)C1 [Compound 73, methyl 2-(3-(4-(2-(2-aminopyridin-3-yl)-5-phenyl-3H-imidazo[4,5-b]pyridin-3-yl)phenyl)azetidine-1-carbonyl)benzoate] | > 500 | < 500 |
| Nc1ncccc1-c1nc2ccc(-c3cccnc3)nc2n1-c1ccc(CNC(=O)c2cccc(CC(=O)O)c2)cc1 [Compound 96, 2-(3-((4-(2-(2-aminopyridin-3-yl)-5-(pyridin-3-yl)-3H-imidazo[4,5-b]pyridin-3-yl)benzyl)carbamoyl)phenyl) acetic acid] | 200 to 500 | < 500 |
| COC(=O)Cc1cccc(C(=O)NCc2ccc(-n3c(-c4cccnc4N)nc4cc(-c5cccnc5)cnc43)cc2)c1 [Compound 89, methyl 2-(3-((4-(2-(2-aminopyridin-3-yl)-6-(pyridin-3-yl)-3H-imidazo[4,5-b]pyridin-3-yl)benzyl)carbamoyl)phenyl)acetate] | > 500 | < 500 |
| Nc1ncccc1-c1nc2ccc(-c3ccccc3)nc2n1-c1ccc(CNC(=O)c2cc(C(=O)O)ccc2F)cc1 [Compound 23, 3-((4-(2-(2-aminopyridin-3-yl)-5-phenyl-3H-imidazo[4,5-b]pyridin-3-yl)benzyl)carbamoyl)-4-fluorobenzoic acid] | < 50 | < 500 |
| Nc1ncccc1-c1nc2cc(C(F)(F)F)cnc2n1-c1ccc(CNC(=O)c2ccc(C(=O)O)cc2)cc1 [Compound 98, 4-((4-(2-(2-aminopyridin-3-yl)-6-(trifluoromethyl)-3H-imidazo[4,5-b]pyridin-3-yl)benzyl)carbamoyl)benzoic acid] | > 500 | < 500 |
| Nc1ncccc1-c1nc2cc(-c3cccnc3)cnc2n1-c1ccc(CNC(=O)c2cccc(CCC(=O)O)c2)cc1 [Compound 94, 3-(3-((4-(2-(2-aminopyridin-3-yl)-6-(pyridin-3-yl)-3H-imidazo[4,5-b]pyridin-3-yl)benzyl)carbamoyl)phenyl) propanoic acid] | > 500 | < 500 |
| Nc1ncccc1-c1nc2ccc(-c3ccccc3)nc2n1-c1ccc(C2CN(C(=O)c3cccc(C(=O)O)c3F)C2)cc1 [Compound 78, 3-(3-(4-(2-(2-aminopyridin-3-yl)-5-phenyl-3H-imidazo[4,5-b]pyridin-3-yl)phenyl)azetidine-1-carbonyl)-2-fluorobenzoic acid] | 50 to 200 | < 500 |
| Nc1ncccc1-c1nc2cc(-c3cccnc3)cnc2n1-c1ccc(CNC(=O)c2cccc(CC(=O)O)c2)cc1 [Compound 90, 2-(3-((4-(2-(2-aminopyridin-3-yl)-6-(pyridin-3-yl)-3H-imidazo[4,5-b]pyridin-3-yl)benzyl)carbamoyl)phenyl) acetic acid] | > 500 | < 500 |
| Nc1ncccc1-c1nc2ccc(-c3ccccc3)nc2n1-c1ccc(NC(=O)c2cccc(CC(=O)O)c2)nc1 [Compound 64, 2-(3-((5-(2-(2-aminopyridin-3-yl)-5-phenyl-3H-imidazo[4,5-b]pyridin-3-yl)pyridin-2-yl)carbamoyl)phenyl) acetic acid] | < 50 | < 500 |
| Nc1ncccc1-c1nc2ccc(C(F)(F)F)nc2n1-c1ccc(CNC(=O)c2ccc(C(=O)O)cc2)cc1 [Compound 99, 4-((4-(2-(2-aminopyridin-3-yl)-5-(trifluoromethyl)-3H-imidazo[4,5-b]pyridin-3-yl)benzyl)carbamoyl)benzoic acid] | > 500 | < 500 |
| Nc1ncccc1-c1nc2ccc(-c3ccccc3)nc2n1-c1ccc(C2CN(C(=O)c3ccc(C(=O)O)cc3F)C2)cc1 [Compound 76, 4-(3-(4-(2-(2-aminopyridin-3-yl)-5-phenyl-3H-imidazo[4,5-b]pyridin-3-yl)phenyl)azetidine-1-carbonyl)-3-fluorobenzoic acid] | < 50 | < 500 |
| Nc1ncccc1-c1nc2ccc(-c3ccccc3)nc2n1-c1ccc(CNC(=O)c2cccc(CC(=O)O)c2)c(F)c1 [Compound 50, 2-(3-((4-(2-(2-aminopyridin-3-yl)-5-phenyl-3H-imidazo[4,5-b]pyridin-3-yl)-2-fluorobenzyl)carbamoyl)phenyl)acetic acid] | > 500 | > 500 |
| Nc1ncccc1-c1nc2ccc(-c3ccccc3)nc2n1-c1ccc(NCc2ccc(C(=O)O)cc2)cc1 [Compound 58, 4-[[4-[2-(2-amino-3-pyridyl)-5-phenyl-imidazo[4,5-b]pyridin-3-yl]anilino]methyl]benzoic acid] | 50 to 200 | < 500 |
| CC(C(=O)O)c1ccc(C(=O)NCc2ccc(-n3c(-c4cccnc4N)nc4ccc(-c5ccccc5)nc43)cc2)cc1 (stereo not shown) [Compound 35, 2-(4-((4-(2-(2-aminopyridin-3-yl)-5-phenyl-3H-imidazo[4,5-b]pyridin-3-yl)benzyl)carbamoyl)phenyl) propanoic acid] | < 50 | < 500 |
| Nc1ncccc1-c1nc2ccc(-c3ccccc3)nc2n1-c1ccc(NC(=O)c2ccc(C(=O)O)cc2F)nc1 [Compound 62, 4-((5-(2-(2-aminopyridin-3-yl)-5-phenyl-3H-imidazo[4,5-b]pyridin-3-yl)pyridin-2-yl)carbamoyl)-3-fluorobenzoic acid] | 50 to 200 | < 500 |
| Nc1ncccc1-c1nc2ccc(-c3ccccc3)nc2n1-c1ccc(CNC(=O)c2cccc(CCC(=O)O)c2)cc1 [Compound 42, 3-(3-((4-(2-(2-aminopyridin-3-yl)-5-phenyl-3H-imidazo[4,5-b]pyridin-3-yl)benzyl)carbamoyl)phenyl) propanoic acid] | 50 to 200 | < 500 |

Continued, values first:

| IC50 [1] [nM] | IC50 [2] [nM] | SMILES |
| --- | --- | --- |
| 200 to 500 | < 500 | Cc1cc(NC(=O)c2ccc(-n3c(-c4cccnc4N)nc4ccc(-c5ccccc5)nc43)cn2)ccc1C(=O)O [Compound 177, 4-(5-(2-(2-aminopyridin-3-yl)-5-phenyl-3H-imidazo[4,5-b]pyridin-3-yl)picolinamido)-2-methylbenzoic acid] |
| > 500 | < 500 | C[C@@H](c1ccc(C(=O)O)cc1C(F)(F)F)N1CC(c2ccc(-n3c(-c4cccnc4N)nc4ccc(-c5ccccc5)nc43)cc2)C1 [Compound 164] |
| 50 to 200 | < 500 | Cc1nc(NC(=O)c2cc(F)c(C(=O)O)cc2F)ccc1-n1c(-c2cccnc2N)nc2ccc(-c3ccccc3)nc21 [Compound 147] |
| 200 to 500 | < 500 | CC(C)[C@H](c1ccc(C(=O)O)cc1)N1CC(c2ccc(-n3c(-c4cccnc4N)nc4ccc(-c5ccccc5)nc43)cc2)C1 [Compound 161] |
| > 500 | < 500 | CC(C)c1ccc2nc(-c3cccnc3N)n(-c3ccc(NC(=O)c4ccc(C(=O)O)cc4)nc3)c2c1 [Compound 172, 4-((5-(2-(2-aminopyridin-3-yl)-6-isopropyl-1H-benzo[d]imidazol-1-yl)pyridin-2-yl)carbamoyl)benzoic acid] |
| < 50 | < 500 | Nc1ncccc1-c1nc2ccc(-c3ccccc3)nc2n1-c1ccc(NC(=O)c2ccc(C(=O)O)c(F)c2)nc1 [Compound 117] |
| > 500 | > 500 | COC(=O)Cc1cccc(C(=O)NCc2ccc(-n3c(-c4cccnc4N)nc4cccnc43)cc2)c1 [Compound 100, methyl 2-(3-((4-(2-(2-aminopyridin-3-yl)-3H-imidazo[4,5-b]pyridin-3-yl)benzyl)carbamoyl)phenyl)acetate] |
| 200 to 500 | < 500 | CC(C)[C@@H](c1ccc(C(=O)O)cc1)N1CC(c2ccc(-n3c(-c4cccnc4N)nc4ccc(-c5ccccc5)nc43)cc2)C1 [Compound 162] |
| 200 to 500 | < 500 | CC(c1ccc(C(=O)O)cc1)N1CCC(c2ccc(-n3c(-c4cccnc4N)nc4ccc(-c5ccccc5)nc43)cc2)C1 (stereo not shown) [Compound 171, 4-(1-(3-(4-(2-(2-aminopyridin-3-yl)-5-phenyl-3H-imidazo[4,5-b]pyridin-3-yl)phenyl)pyrrolidin-1-yl)ethyl)benzoic acid] |
| > 500 | < 500 | Nc1ncccc1-c1nc2ccc(-c3ccccc3)nc2n1-c1ccc(C2CN(Cc3ccc(C(=O)O)cc3)C2)nc1 [Compound 168, 4-[[3-[5-[2-(2-amino-3-pyridyl)-5-phenyl-imidazo[4,5-b]pyridin-3-yl]-2-pyridyl]azetidin-1-yl]methyl]benzoic acid] |
| 50 to 200 | < 500 | Cc1nc(NC(=O)c2ccc(C(=O)O)cc2F)ccc1-n1c(-c2cccnc2N)nc2ccc(-c3ccccc3)nc21 [Compound 148] |
| > 500 | > 500 | Nc1ncccc1-c1nc2ccc(C(F)(F)F)cc2n1-c1ccc(CNC(=O)c2cccc(CC(=O)O)c2)cc1 [Compound 107, 2-(3-((4-(2-(2-aminopyridin-3-yl)-6-(trifluoromethyl)-1H-benzo[d]imidazol-1-yl)benzyl)carbamoyl)phenyl) acetic acid] |

From patent publication US20260200919A1, “SUBSTITUTED AMINOPYRIDINE COMPOUNDS AND METHODS OF TREATING DISEASE USING SAME” (Atavistik Bio, Inc., priority 2023, published 2026)
